Measured values reported in patent publication US9302999B2, “Substituted triazoles as herbicides” (E. I. DU PONT DE NEMOURS AND COMPANY, priority 2012, dated 2016).
Like-named read-outs stand apart in the source and are kept apart here.

How the values were obtained:
[1] = test system: pigweed (Amaranthus retroflexus); assay: Test C pre-/postemergence: pigweed; type: in vivo
Summary of the method: (§1)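 Preemergence on seeds in loam/sand, postemergence on 2–18 cm (1–4-leaf) plants in peat-based medium; compounds in non-phytotoxic solvent with surfactant. After 13–15 days in greenhouse, visual rating versus controls, 0 (no effect) to 100 (complete control).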

[2] = test system: velvetleaf (Abutilon theophrasti); assay: Test C pre-/postemergence: velvetleaf; type: in vivo
Summary of the method: as §1

[3] = test system: barnyardgrass (Echinochloa crus-galli); assay: Test B flooded paddy: barnyardgrass; type: in vivo; conditions: Flood; 125 g ai/ha; applied to paddy water at 2-leaf stage; visually evaluated after 13 to 15 days
Summary of the method: (§2)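 Paddy-water application: seedlings at 2-leaf stage, flood depth 3 cm maintained for the test duration. Evaluation after 13–15 days in the greenhouse by eye relative to controls; 0–100 scale.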

[4] = test system: winter wheat (Triticum aestivum); assay: Test C pre-/postemergence: winter wheat; type: in vivo
Summary of the method: as §1

[5] = test system: Barnyardgrass; assay: Test C postemergence: barnyardgrass; type: in vivo, Echinochloa crus-galli; conditions: 125 g ai/ha, scale 0 to 100, 0 no effect, 100 complete control
[6] = test system: rice (Oryza sativa); assay: Test B flooded paddy: rice; type: in vivo; conditions: Flood; 125 g ai/ha; applied to paddy water at 2-leaf stage; visually evaluated after 13 to 15 days
Summary of the method: as §2

[7] = test system: Barnyardgrass; assay: Test C preemergence: barnyardgrass; type: in vivo, Echinochloa crus-galli
[8] = test system: velvetleaf (Abutilon theophrasti); assay: Test A pre-/postemergence: velvetleaf; type: in vivo; conditions: Abutilon theophrasti, 240 h; for pest or weed control at 125 g/ha: 125 g ai/ha; for pest or weed control at 500 g/ha: 500 g ai/ha
Summary of the method: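 Rating scale 0–100 (100 = complete control), visual, ~10 days after application in the greenhouse. Applications: preemergence directed soil spray; postemergence at 1–2 leaves.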

[9] = test system: wild oat (Avena fatua); assay: Test C pre-/postemergence: wild oat; type: in vivo; conditions: Postemergence
Summary of the method: as §1

[10] = test system: galium (catchweed bedstraw, Galium aparine); assay: Test C pre-/postemergence: galium; type: in vivo
Summary of the method: as §1

[11] = Postemergence, 31 g ai/ha, scale 0 to 100 (0 no effect, 100 complete control)
[12] = Postemergence, 62 g ai/ha, scale 0 to 100 (0 no effect, 100 complete control)
[13] = Postemergence, 125 g ai/ha, scale 0 to 100, 0 no effect, 100 complete control
[14] = Postemergence, 250 g ai/ha, scale 0 to 100
[15] = Preemergence, 31 g ai/ha, scale 0 (no effect) to 100 (complete control)
[16] = Preemergence, 62 g ai/ha, scale of 0 to 100, 0 is no effect, 100 is complete control
[17] = Preemergence, 125 g ai/ha, scale 0 to 100, 0 no effect, 100 complete control
[18] = Preemergence, 250 g ai/ha, scale 0 to 100, 0 no effect, 100 complete control
[19] = 125 g ai/ha, scale 0 to 100, 0 no effect, 100 complete control

CCOc1nn(-c2ccc(C(F)(F)F)cc2)nc1Cc1ccnc(C(F)(F)F)c1 [Compound 164, 4-[[5-ethoxy-2-[4-(trifluoromethyl)phenyl]-2H-1,2,3-triazol-4-yl]methyl]-2-(trifluoromethyl)pyridine]
Plant response rating, Pigweed [1, 11]: 50
Plant response rating, Pigweed [1, 12]: 75
Plant response rating, Pigweed [1, 13]: 80
Plant response rating, Pigweed [1, 14]: 80
Plant response rating, Pigweed [1, 15]: 10
Plant response rating, Pigweed [1, 16]: 35
Plant response rating, Pigweed [1, 17]: 90
Plant response rating, Pigweed [1, 18]: 100
Plant response rating, Velvetleaf [2, 11]: 25
Plant response rating, Velvetleaf [2, 12]: 30
Plant response rating, Velvetleaf [2, 13]: 40
Plant response rating, Velvetleaf [2, 14]: 40
Plant response rating, Velvetleaf [2, 15]: 10
Plant response rating, Velvetleaf [2, 16]: 10
Plant response rating, Velvetleaf [2, 17]: 30
Plant response rating, Velvetleaf [2, 18]: 70
Plant response rating, Barnyardgrass (0 to 100 scale, 0 is no effect, 100 is complete control) [3]: 60
Plant response rating, Wheat [4, 11]: 5
Plant response rating, Wheat [4, 12]: 10
Plant response rating, Wheat [4, 13]: 10
Plant response rating, Wheat [4, 14]: 10
Plant response rating, Wheat [4, 15]: 0
Plant response rating, Wheat [4, 16]: 0
Plant response rating, Wheat [4, 17]: 0
Plant response rating, Wheat [4, 18]: 5
Plant response rating, Barnyardgrass [5]: 10
Plant response rating, Rice (0 to 100 scale, 0 is no effect, 100 is complete control) [6]: 45
Plant response rating, Barnyardgrass ([7]; 31 g ai/ha, scale 0 (no effect) to 100 (complete control)): 5
Plant response rating, Barnyardgrass ([7]; 62 g ai/ha, scale of 0 to 100, 0 is no effect, 100 is complete control): 15
Plant response rating, Barnyardgrass [7, 19]: 25
pest or weed control at 125 g/ha ([8]; post-emergence, Postemergence, 0 to 100 scale, 0 is no effect, 100 is complete control, read-out: Plant response rating, Velvetleaf): 100%
pest or weed control at 500 g/ha ([8]; post-emergence, Postemergence, 0 to 100 scale, 0 is no effect, 100 is complete control, read-out: Velvetleaf plant response rating): 100%
pest or weed control at 125 g/ha ([8]; pre-emergence, Preemergence, 0 to 100 scale where 0 is no effect and 100 is complete control, read-out: Plant response rating, Velvetleaf): 80%
pest or weed control at 500 g/ha ([8]; pre-emergence, Preemergence, 0 to 100 scale (0 no effect, 100 complete control), read-out: Plant response rating, Velvetleaf): 100%
Plant response rating, Oat, Wild ([9]; 31 g ai/ha, scale 0 to 100 (0 no effect, 100 complete control)): 5
Plant response rating, Oat, Wild ([9]; 62 g ai/ha, scale 0 to 100 (0 no effect, 100 complete control)): 5
Plant response rating, Oat, Wild [9, 19]: 5
Plant response rating, Oat, Wild ([9]; 250 g ai/ha, scale 0 to 100): 10
Plant response rating, Galium [10, 11]: 30
Plant response rating, Galium [10, 12]: 30
Plant response rating, Galium [10, 13]: 60
Plant response rating, Galium [10, 14]: 60
Plant response rating, Galium [10, 15]: 0
Plant response rating, Galium [10, 16]: 50
Plant response rating, Galium [10, 17]: 80
Plant response rating, Galium [10, 18]: 80
